Measured values taken from PMC7614683, “A small molecule PI3Kα activator for cardioprotection and neuroregeneration” (Nature, 2023).
Read-outs that look alike come from different tables or passages of the source.

Legend:
MCF10A cells = test: pAKT S473 western blot, MCF10A; type: cell-based, human
PIK3CG (p110 gamma) = PIK3CG (p110 gamma) (Homo sapiens, UniProt P48736); test: SelectScreen Adapta; type: biochemical
Method: 133 protein kinases and 7 lipid kinases were counterscreened, with 1938 used at 1 μM, using the Adapta, Lantha and Z-LYTE assays (SelectScreen Kinase Profiling Service; Thermofisher – experimental details of these assays can be found here: https://www.thermofisher.com/uk/en/home/industrial/pharma-biopharma/drug-discovery-development/target-and-lead-identification-and-validation/kinasebiology/kinase-activity-assays.html. The tree represention in KinMap[59] generated courtesy of Cell Signaling Technology, Inc. (www.cellsignal.com). mTORC1 (mTOR/RAPTOR/LST8) protein complex and ATM kinase and substrates were produced as previously described[57],[60]. Screening of 1938 was conducted using SuperSep Phos-Tag 50 μmol/l 100 x 100 x 6.6 mm 17-well (192-18001/199-18011) gels. For ATM assays, 100 nM ATM was incubated for 30 min at 30°C with 5 μM GST-p53 and 1 mM ATP, in the absence or presence of 200 μM 1938 in ATM Kinase Buffer (50 mM HEPES pH 7.5, 100 mM NaCl, 10% glycerol, 2 mM […], 5 mM MgCl2). As a positive control for ATM activation, the same reaction was carried out with 100 nM ATM/5 μM GST-p53/1 mM ATP in the presence of 100 nM Mre11-Rad50-Nbs1 (MRN) complex, a known activator of ATM[61]. For mTORC1 assays, 50 nM mTORC1 complex (mTOR/LST8/RAPTOR) was incubated for 3 h at 30°C with 15 μM 4E-BP1, 10 mM MgCl2 and 250 μM ATP, in the absence or presence of 200 μM 1938. As a ‘positive’ control, a higher concentration (150 nM) of mTORC1 complex (mTOR/LST8/RAPTOR) was incubated for 3 h at 30°C with 15 μM 4E-BP1, 10 mM MgCl2 and 250 μM ATP. Kinase reactions were quenched by addition of SDS-PAGE Loading Buffer (as per manufacturer’s instructions) and freezing at -20°C before being run on the Phos-tag gels at 150 V for 90 min. Gels were then stained using InstantBlue™ Coomassie, and quantified using BioRad Image Lab Software. Kinase assays were carried out in triplicate.

PI3Kα-WT MEFs = test: CellTiter-Glo cell assay, PI3Kα-WT MEFs; type: cell-based, mouse
Method: (§1) MEFs were seeded at 5000 cells per well in 96-well plates in DMEM supplemented with 10% FBS and 1% P/S, and allowed to attach overnight. The next day, cells were serum starved for 4 h prior to compound treatment in fresh serum-free DMEM. Compounds solubilised in DMSO were diluted 1:2 in a 12-point concentration response curve in DMSO. Intermediate plates were prepared by transferring 4 μl of compounds in DMSO into 96 μl of serum-free DMEM media. This was then used to treat cell plates by transferring 12.5 μl of solution from the intermediate plate into 87.5 μl of serum-free DMEM in the cell plates. […] Cell plates were incubated for 24 h, 48 h or 72 h at 37°C, 5% CO2, followed by determination of cell survival using the CellTiter-Glo® reagent according to manufacturer’s instructions (Promega #G7571). Endpoint luminescence was measured using CLARIOstar (BMG). Compound data were analyzed using GraphPad Prism 8.

PI3Kα-KO MEFs = test: CellTiter-Glo cell assay, PI3Kα-KO MEFs; type: cell-based, mouse; conditions: 24h
Method: as §1

Sequence of PIK3CG (p110 gamma) (P48736 whole entry): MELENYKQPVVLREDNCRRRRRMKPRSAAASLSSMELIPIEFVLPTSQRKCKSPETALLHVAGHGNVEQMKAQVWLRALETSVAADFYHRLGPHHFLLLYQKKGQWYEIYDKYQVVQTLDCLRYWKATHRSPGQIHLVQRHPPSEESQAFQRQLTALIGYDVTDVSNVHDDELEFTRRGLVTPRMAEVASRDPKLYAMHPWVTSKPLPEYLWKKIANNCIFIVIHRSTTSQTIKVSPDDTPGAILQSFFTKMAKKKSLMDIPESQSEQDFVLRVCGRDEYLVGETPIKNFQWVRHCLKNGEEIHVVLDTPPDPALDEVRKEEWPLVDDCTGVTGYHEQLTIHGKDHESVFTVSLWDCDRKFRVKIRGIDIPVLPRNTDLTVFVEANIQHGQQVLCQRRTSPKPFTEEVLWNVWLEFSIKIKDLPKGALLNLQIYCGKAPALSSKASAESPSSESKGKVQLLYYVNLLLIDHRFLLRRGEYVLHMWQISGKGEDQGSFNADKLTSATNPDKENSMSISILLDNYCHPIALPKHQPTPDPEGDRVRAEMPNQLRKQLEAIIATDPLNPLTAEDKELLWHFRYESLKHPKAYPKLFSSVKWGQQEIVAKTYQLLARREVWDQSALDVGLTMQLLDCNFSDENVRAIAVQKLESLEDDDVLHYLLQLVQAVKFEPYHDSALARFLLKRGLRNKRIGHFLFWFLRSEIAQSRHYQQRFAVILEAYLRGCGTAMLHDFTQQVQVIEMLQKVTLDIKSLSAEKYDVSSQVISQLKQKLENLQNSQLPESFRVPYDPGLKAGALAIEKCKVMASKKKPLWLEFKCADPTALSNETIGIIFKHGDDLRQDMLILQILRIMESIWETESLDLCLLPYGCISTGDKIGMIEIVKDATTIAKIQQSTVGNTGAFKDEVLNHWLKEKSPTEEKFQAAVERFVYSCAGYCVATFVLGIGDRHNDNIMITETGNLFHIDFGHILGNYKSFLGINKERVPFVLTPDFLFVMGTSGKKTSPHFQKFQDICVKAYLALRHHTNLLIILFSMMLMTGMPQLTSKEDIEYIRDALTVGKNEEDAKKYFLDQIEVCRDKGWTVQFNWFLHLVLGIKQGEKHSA

**Q.** For `CCN1CCN(c2ccc(Nc3cc(Nc4cccc5c4N(C(C)=O)CC5)ccn3)cc2)CC1` [Compound 1938], which “pAKT^S473 increase” value (MCF10A cells) is on record?
**A.** The value was “BYL719-sensitive increase in pAKT^S473”.

**Q.** What about the inhibition at 1 µM (PIK3CG (p110 gamma); read-out: % Inhibition Point 1) of the same compound?
**A.** The inhibition at 1 µM was 4.3%.

**Q.** And the inhibition at 1 µM (PIK3CG (p110 gamma); read-out: % Inhibition Point 2)?
**A.** Its inhibition at 1 µM is 13%.

**Q.** And the inhibition at 1 µM (PIK3CG (p110 gamma); read-out: % Inhibition mean)?
**A.** The inhibition at 1 µM was 8.53%.

**Q.** And the “concentrations with a decrease in ATP levels (PI3Kα-independent effects)” value (PI3Kα-WT MEFs; 24h)?
**A.** Its value is greater than 7.5 µM.

**Q.** What about the “concentration from which non-PI3Kα-dependent effects are observed” value (PI3Kα-WT MEFs; 48h and 72h incubation, PI3Kα-WT and PI3Kα-KO MEFs) of the same compound?
**A.** Its value is 2 to 4 µM.

**Q.** And the EC50 (PI3Kα-WT MEFs; Mus musculus, 24h treatment, read-out: EC50 of increase in metabolic activity (ATP content))?
**A.** The EC50 was roughly 500 nM.

**Q.** And the “concentrations with a decrease in ATP levels (PI3Kα-independent effects)” value (PI3Kα-KO MEFs)?
**A.** Its value is greater than 7.5 µM.
